Reference: ChEMBL document CHEMBL1151757, “Synthesis, radiosynthesis, and biological evaluation of fluorine-18-labeled 2beta-carbo(fluoroalkoxy)-3beta-(3'-((Z)-2-haloethenyl)phenyl)nortropanes: candidate radioligands for in vivo imaging of the serotonin transporter with positron emission tomography” (J Med Chem, 2008)

Columns and labels:
[1] = Ratio of drug uptake in midbrain to cerebellum in anesthetized cynomolgus monkey after 27.5 mins postinjection; assay type: ADME, organism-based, Macaca fascicularis; conditions: in vivo
Medulla [2] = assay: Drug uptake in anesthetized cynomolgus monkey brain medulla after 12.5 mins postinjection; assay type: ADME, organism-based, Macaca fascicularis; conditions: in vivo
[3] = Ratio of drug uptake in putamen to cerebellum in anesthetized cynomolgus monkey after 9.5 mins postinjection; assay type: ADME, organism-based, Macaca fascicularis; conditions: in vivo
Medulla [4] = assay: Drug uptake in anesthetized cynomolgus monkey brain medulla after 225 mins postinjection; assay type: ADME, organism-based, Macaca fascicularis; conditions: in vivo, 3.75 h
[5] = Drug uptake in anesthetized cynomolgus monkey brain occipital lobe after 225 mins postinjection; assay type: ADME, organism-based, Macaca fascicularis; conditions: in vivo, 3.75 h
Thalamus [6] = assay: Drug uptake in anesthetized cynomolgus monkey brain thalamus after 55 mins postinjection; assay type: ADME, organism-based, Macaca fascicularis; design: unit not given here; conditions: in vivo
Medulla [7] = assay: Drug uptake in anesthetized cynomolgus monkey brain medulla after 235 mins postinjection; assay type: ADME, organism-based, Macaca fascicularis; conditions: in vivo
Putamen [8] = assay: Drug uptake in anesthetized cynomolgus monkey brain putamen after 85 mins postinjection; assay type: ADME, organism-based, Macaca fascicularis; design: unit not given here; conditions: in vivo
[9] = Drug uptake in anesthetized cynomolgus monkey brain frontal lobe after 165 mins postinjection; assay type: ADME, organism-based, Macaca fascicularis; conditions: in vivo, 2.75 h
Midbrain [10] = assay: Drug uptake in anesthetized cynomolgus monkey brain midbrain after 235 mins postinjection; assay type: ADME, organism-based, Macaca fascicularis; conditions: in vivo
Medulla [11] = assay: Drug uptake in anesthetized cynomolgus monkey brain medulla after 85 mins postinjection; assay type: ADME, organism-based, Macaca fascicularis; conditions: in vivo
[12] = Octanol-water partition coefficient, log P at pH 7.4 by shake-flask method; assay type: physicochemical
Medulla [13] = assay: Drug uptake in anesthetized cynomolgus monkey brain medulla after 105 mins postinjection; assay type: ADME, organism-based, Macaca fascicularis; conditions: in vivo, 1.75 h
[14] = Ratio of drug uptake in occipital lobe to cerebellum in anesthetized cynomolgus monkey after 105 mins postinjection; assay type: ADME, organism-based, Macaca fascicularis; conditions: in vivo, 1.75 h
Midbrain [15] = assay: Drug uptake in anesthetized cynomolgus monkey brain midbrain after 3.5 mins postinjection; assay type: ADME, organism-based, Macaca fascicularis; design: unit not given here; conditions: in vivo
[16] = Ratio of drug uptake in occipital lobe to cerebellum in anesthetized cynomolgus monkey after 4.5 mins postinjection; assay type: ADME, organism-based, Macaca fascicularis; conditions: in vivo, 0.075 h
Caudate [17] = assay: Drug uptake in anesthetized cynomolgus monkey brain caudate after 55 mins postinjection; assay type: ADME, organism-based, Macaca fascicularis, Caudate nucleus; conditions: in vivo
[18] = Drug uptake in anesthetized cynomolgus monkey brain cerebellum after 225 mins postinjection; assay type: ADME, organism-based, Macaca fascicularis; conditions: in vivo, 3.75 h
[19] = Drug uptake in anesthetized cynomolgus monkey brain occipital lobe after 0.5 mins postinjection; assay type: ADME, organism-based, Macaca fascicularis; conditions: in vivo
Putamen [20] = assay: Drug uptake in anesthetized cynomolgus monkey brain putamen after 0.5 mins postinjection; assay type: ADME, organism-based, Macaca fascicularis; conditions: in vivo
[21] = Ratio of drug uptake in frontal lobe to cerebellum in anesthetized cynomolgus monkey after 3.5 mins postinjection; assay type: ADME, organism-based, Macaca fascicularis; conditions: in vivo
[22] = Ratio of drug uptake in thalamus to cerebellum in anesthetized cynomolgus monkey after 155 mins postinjection; assay type: ADME, organism-based, Macaca fascicularis; conditions: in vivo
[23] = Ratio of drug uptake in putamen to cerebellum in anesthetized cynomolgus monkey after 165 mins postinjection; assay type: ADME, organism-based, Macaca fascicularis; conditions: in vivo, 2.75 h
Midbrain [24] = assay: Drug uptake in anesthetized cynomolgus monkey brain midbrain after 105 mins postinjection; assay type: ADME, organism-based, Macaca fascicularis; design: unit not given here; conditions: in vivo, 1.75 h
Midbrain [25] = assay: Drug uptake in anesthetized cynomolgus monkey brain midbrain after 165 mins postinjection; assay type: ADME, organism-based, Macaca fascicularis; conditions: in vivo, 2.75 h
[26] = Ratio of drug uptake in occipital lobe to cerebellum in anesthetized cynomolgus monkey after 0.5 mins postinjection; assay type: ADME, organism-based, Macaca fascicularis; conditions: in vivo
Medulla [27] = assay: Drug uptake in anesthetized cynomolgus monkey brain medulla after 65 mins postinjection; assay type: ADME, organism-based, Macaca fascicularis; conditions: in vivo
Thalamus [28] = assay: Drug uptake in anesthetized cynomolgus monkey brain thalamus after 165 mins postinjection; assay type: ADME, organism-based, Macaca fascicularis; design: unit not given here; conditions: in vivo, 2.75 h
Midbrain [29] = assay: Drug uptake in anesthetized cynomolgus monkey brain midbrain after 55 mins postinjection; assay type: ADME, organism-based, Macaca fascicularis; design: unit not given here; conditions: in vivo
[30] = Ratio of drug uptake in occipital lobe to cerebellum in anesthetized cynomolgus monkey after 175 mins postinjection; assay type: ADME, organism-based, Macaca fascicularis; conditions: in vivo
Thalamus [31] = assay: Drug uptake in anesthetized cynomolgus monkey brain thalamus after 15.5 mins postinjection; assay type: ADME, organism-based, Macaca fascicularis; design: unit not given here; conditions: in vivo
Medulla [32] = assay: Drug uptake in anesthetized cynomolgus monkey brain medulla after 9.5 mins postinjection; assay type: ADME, organism-based, Macaca fascicularis; conditions: in vivo
Thalamus [33] = assay: Drug uptake in anesthetized cynomolgus monkey brain thalamus after 215 mins postinjection; assay type: ADME, organism-based, Macaca fascicularis; design: unit not given here; conditions: in vivo
[34] = Ratio of drug uptake in putamen to cerebellum in anesthetized cynomolgus monkey after 45 mins postinjection; assay type: ADME, organism-based, Macaca fascicularis; conditions: in vivo, 0.75 h
[35] = Drug uptake in anesthetized cynomolgus monkey brain occipital lobe after 35 mins postinjection; assay type: ADME, organism-based, Macaca fascicularis; conditions: in vivo
Midbrain [36] = assay: Drug uptake in anesthetized cynomolgus monkey brain midbrain after 2.5 mins postinjection; assay type: ADME, organism-based, Macaca fascicularis; design: unit not given here; conditions: in vivo
[37] = Drug uptake in anesthetized cynomolgus monkey brain cerebellum after 6.5 mins postinjection; assay type: ADME, organism-based, Macaca fascicularis; conditions: in vivo
Midbrain [38] = assay: Drug uptake in anesthetized cynomolgus monkey brain midbrain after 18.5 mins postinjection; assay type: ADME, organism-based, Macaca fascicularis; design: unit not given here; conditions: in vivo
Thalamus [39] = assay: Drug uptake in anesthetized cynomolgus monkey brain thalamus after 135 mins postinjection; assay type: ADME, organism-based, Macaca fascicularis; design: unit not given here; conditions: in vivo, 2.25 h
Medulla [40] = assay: Drug uptake in anesthetized cynomolgus monkey brain medulla after 75 mins postinjection; assay type: ADME, organism-based, Macaca fascicularis; conditions: in vivo, 1.25 h
[41] = Ratio of drug uptake in pons to cerebellum in anesthetized cynomolgus monkey after 0.5 mins postinjection; assay type: ADME, organism-based, Macaca fascicularis; conditions: in vivo
Caudate [42] = assay: Drug uptake in anesthetized cynomolgus monkey brain caudate after 1.5 mins postinjection; assay type: ADME, organism-based, Macaca fascicularis, Caudate nucleus; conditions: in vivo, 0.025 h
[43] = Ratio of drug uptake in putamen to cerebellum in anesthetized cynomolgus monkey after 35 mins postinjection; assay type: ADME, organism-based, Macaca fascicularis; conditions: in vivo
Midbrain [44] = assay: Drug uptake in anesthetized cynomolgus monkey brain midbrain after 115 mins postinjection; assay type: ADME, organism-based, Macaca fascicularis; design: unit not given here; conditions: in vivo
Caudate [45] = assay: Drug uptake in anesthetized cynomolgus monkey brain caudate after 35 mins postinjection; assay type: ADME, organism-based, Macaca fascicularis, Caudate nucleus; conditions: in vivo
Putamen [46] = assay: Drug uptake in anesthetized cynomolgus monkey brain putamen after 145 mins postinjection; assay type: ADME, organism-based, Macaca fascicularis; conditions: in vivo
Pons = assay: Drug uptake in anesthetized cynomolgus monkey brain pons after 15.5 mins postinjection; assay type: ADME, organism-based, Macaca fascicularis; conditions: in vivo
[47] = Ratio of drug uptake in midbrain to cerebellum in anesthetized cynomolgus monkey after 145 mins postinjection; assay type: ADME, organism-based, Macaca fascicularis; conditions: in vivo
[48] = Drug uptake in anesthetized cynomolgus monkey brain cerebellum after 175 mins postinjection; assay type: ADME, organism-based, Macaca fascicularis; conditions: in vivo

O=C(OCC[18F])C1C2CCC(CC1c1cccc(/C=C\I)c1)N2 (centres undefined)
Ratio [1]: 1.1
Drug uptake (Medulla [2]): 3.37
Ratio [3]: 0.9
Drug uptake (Medulla [4]): 2.37
Drug uptake [5]: 1.22
Drug uptake (Thalamus [6]): 4.29
Drug uptake (Medulla [7]): 2.32
Drug uptake (Putamen [8]): 4.16
Drug uptake [9]: 1.81
Drug uptake (Midbrain [10]): 2.94
Drug uptake (Medulla [11]): 3.75
logD [12]: 1.69
Drug uptake (Medulla [13]): 3.58
Ratio [14]: 1
Drug uptake (Midbrain [15]): 1.19
Ratio [16]: 0.6
Drug uptake (Caudate [17]): 3.72
Drug uptake [18]: 1.26
Drug uptake [19]: 0
Drug uptake (Putamen [20]): 0
Ratio [21]: 0.6
Ratio [22]: 1.8
Ratio [23]: 1.8
Drug uptake (Midbrain [24]): 4.34
Drug uptake (Midbrain [25]): 3.53
Ratio [26]: 0.8
Drug uptake (Medulla [27]): 3.97
Drug uptake (Thalamus [28]): 2.91
Drug uptake (Midbrain [29]): 4.91
Ratio [30]: 1
Drug uptake (Thalamus [31]): 3.48
Drug uptake (Medulla [32]): 3.15
Drug uptake (Thalamus [33]): 2.38
Ratio [34]: 1.2
Drug uptake [35]: 3.15
Drug uptake (Midbrain [36]): 0.54
Drug uptake [37]: 2.98
Drug uptake (Midbrain [38]): 4.37
Drug uptake (Thalamus [39]): 3.33
Drug uptake (Medulla [40]): 3.78
Ratio [41]: 1.7
Drug uptake (Caudate [42]): 0.08
Ratio [43]: 1.1
Drug uptake (Midbrain [44]): 4.18
Drug uptake (Caudate [45]): 3.54
Drug uptake (Putamen [46]): 3.27
Drug uptake (Pons): 2.82
Ratio [47]: 2.1
Drug uptake [48]: 1.57
